{
  "source": "patent US20220249493A1",
  "about": "“PHARMACEUTICAL COMPOSITION COMPRISING UDENAFIL” (COREPHARM BIO CO., LTD., priority 2019, published 2022)",
  "experiment": "Udenafil solubility test at different pHs",
  "assay_type": "physicochemical",
  "conditions": "thermodynamic from solid; in purified water (Comparative Example 1)",
  "description": "A pH adjusting agent was added to 5 ml of purified water, and the mixture was stirred for 10 minutes, and then udenafil was added thereto, thus preparing the solutions shown in Table 1 above.\nDetector: UV detector (292 nm)\nColumn temperature: 30° C.\nMobile phase: 2.72 g of KH2PO4 dissolved in 1 L of purified water (A); acetonitrile (B); A:B=700:300",
  "data": [
    {"smiles": "CCCOc1ccc(S(=O)(=O)NCCC2CCCN2C)cc1-c1nc2c(CCC)nn(C)c2c(=O)[nH]1", "note": "(stereo not shown) [Udenafil, 5-[2-propyloxy-5-(1-methyl-2-pyrrolidinyleneamidosulfonyl)phenyl]-1-methyl-1-propyl-1,6-dihydro-7H-pyrazolo(4,3-d)pyrimidin-7-one]", "values": [
      {"measurement": "solubility at 2 h", "result": "~0.12", "unit": "mg/mL"}
    ]}
  ]
}
